Results as given in patent US20180311217A1, “METHODS OF TREATMENT AND COMPOSITIONS WITH XANTHINE OXIDASE INHIBITORS” (Takeda Pharmaceuticals U.S.A., Inc., priority 2013, published 2018).
Marks after values point to notes of the source that are not given here.

Key:
[1] = tested on: hyperuricemic gout subjects with moderate to severe renal impairment; assay: Example 1 randomized double-blind 12 month study: serum urate (sUA); assay type: in vivo, human
Source text: Randomization was stratified at baseline using 3 strata: subjects taking an angiotensin receptor blocker (ARB), subjects taking an angiotensin converting enzyme inhibitors (ACEi), or subjects not taking an ARB or an ACEi. […] Serum samples for the analysis of sUA were collected as part of the standard chemistry panel at the time points stipulated in Schedule of Study Procedures (Table 1). All samples were collected in accordance with standard laboratory procedures. Serum urate concentrations were determined using the enzymatic method as performed by the Central Laboratory and were blinded to the Sponsor and investigative site beginning at Day 1 through the Month 12/ET visits. Missing data in all efficacy analyses was imputed with the last available postbaseline observation carrying forward (LOCF). A subject was included in the analysis of a specific efficacy variable only when there was both a baseline value and at least 1 value during the double-blind treatment period. […] The percentage of subjects with sUA<6 mg/dL at Month 12 was summarized by treatment group, and the treatment groups were compared by a CMH test with prior use of an ARB or ACEi as a stratification variable. In addition, change from baseline and percent change from Baseline in sUA were summarized by visit and by treatment.

[2] = tested on: hyperuricemic gout subjects with moderate to severe renal impairment; assay: Example 1 study: eGFR using the MDRD formula; assay type: in vivo, human; conditions: for change in eGFR over time: prior use of ACEi; for change in eGFR levels over time: prior use of ARB; for change in mean eGFR levels: subjects with moderate renal impairment
Procedure: Following the Study Day 1 Visit, subjects returned to the clinic for study visits at Day 14, Months 1, 3, 6, 9 and for a final visit at Month 12/ET Visit. […] Gout flare assessments were collected at each visit. Estimated GFR by Modification of Diet in Renal Disease (MDRD) calculation was performed by the Central Laboratory at all visits. Blood pressure (clinic with standardized instruments) was measured throughout the study. Adverse events, electrocardiograms (ECGs), clinical laboratory tests, and vital signs were collected at each visit.
The secondary efficacy variables for this study included change from baseline to Month 12 in eGFR using the MDRD formula; and percentage of subjects with sUA<6.0 mg/dL at Month 12.
An ANCOVA analysis similar to the primary analysis was used for analysis of eGFR. Subgroup analyses were also summarized for eGFR as for the primary endpoint.

[3] = oral administration; cited from earlier work
[4] = 30 mg BID, Month 12, listed as febuxostat
[5] = 40/80 mg QD, Month 12, listed as febuxostat

Compound: Cc1nc(-c2ccc(OCC(C)C)c(C#N)c2)sc1C(=O)O [Febuxostat, 2-[3-cyano-4-(2-methylpropoxy)phenyl]-4-methylthiazole-5-carboxylic acid]
- Percentage of Subjects with sUA < 6.0 mg/dL ([1]; 30 mg BID, Day 14): 71.9 (23/32) %
- Percentage of Subjects with sUA < 6.0 mg/dL ([1]; 30 mg BID, Month 1): 71.9 (23/32) %
- Percentage of Subjects with sUA < 6.0 mg/dL ([1]; 30 mg BID, Month 3): 78.1 (25/32) %
- Percentage of Subjects with sUA < 6.0 mg/dL ([1]; 30 mg BID, Month 6): 65.6 (21/32)* %
- Serum urate change from Baseline, LS mean (SE) ([1]; 30 mg BID, Month 6): −5.08 (0.304) mg/dL
- Serum urate change from Baseline, LS mean difference (SE) from placebo group ([1]; 30 mg BID, Month 6): −5.15 (0.428) mg/dL
- Percentage of Subjects with sUA < 6.0 mg/dL ([1]; 30 mg BID, Month 9): 68.8 (22/32) %
- Percentage of Subjects with sUA < 6.0 mg/dL ([1]; 30 mg BID, Month 12): 68.8 (22/32)* %
- Serum urate change from Baseline, LS mean (SE) ([1]; 30 mg BID, Month 12): −4.97 (0.318) mg/dL
- Serum urate change from Baseline, LS mean difference (SE) from placebo group ([1]; 30 mg BID, Month 12): −4.82 (0.447) mg/dL
- Serum urate change from Baseline, LS mean (SE) [1, 4]: -4.97 mg/dL
- Percentage of Subjects with sUA < 6.0 mg/dL ([1]; 40/80 mg QD, Day 14): 33.3 (10/30) %
- Percentage of Subjects with sUA < 6.0 mg/dL ([1]; 40/80 mg QD, Month 1): 35.5 (11/31) %
- Percentage of Subjects with sUA < 6.0 mg/dL ([1]; 40/80 mg QD, Month 3): 58.1 (18/31) %
- Percentage of Subjects with sUA < 6.0 mg/dL ([1]; 40/80 mg QD, Month 6): 51.6 (16/31)* %
- Serum urate change from Baseline, LS mean (SE) ([1]; 40/80 mg QD, Month 6): −4.29 (0.309) mg/dL
- Serum urate change from Baseline, LS mean difference (SE) from placebo group ([1]; 40/80 mg QD, Month 6): −4.36 (0.431) mg/dL
- Percentage of Subjects with sUA < 6.0 mg/dL ([1]; 40/80 mg QD, Month 9): 58.1 (18/31) %
- Percentage of Subjects with sUA < 6.0 mg/dL ([1]; 40/80 mg QD, Month 12): 45.2 (14/31)* %
- Serum urate change from Baseline, LS mean (SE) ([1]; 40/80 mg QD, Month 12): −4.17 (0.323) mg/dL
- Serum urate change from Baseline, LS mean difference (SE) from placebo group ([1]; 40/80 mg QD, Month 12): −4.02 (0.451) mg/dL
- Serum urate change from Baseline, LS mean (SE) [1, 5]: -4.17 mg/dL
- eGFR using MDRD formula, Change from Baseline ([2]; 30 mg BID, Day 14): −0.99 mL/min/1.73 m^2
- eGFR using MDRD formula, Mean (SD) ([2]; 30 mg BID, Day 14): 33.25 (8.042) mL/min/1.73 m^2
- eGFR using MDRD formula, Change from Baseline ([2]; 30 mg BID, Month 1): −1.48 mL/min/1.73 m^2
- eGFR using MDRD formula, Mean (SD) ([2]; 30 mg BID, Month 1): 32.99 (8.305) mL/min/1.73 m^2
- eGFR using MDRD formula, Change from Baseline ([2]; 30 mg BID, Month 3): −0.72 mL/min/1.73 m^2
- eGFR using MDRD formula, Mean (SD) ([2]; 30 mg BID, Month 3): 33.52 (9.005) mL/min/1.73 m^2
- eGFR Change from Baseline, LS mean (SE) ([2]; 30 mg BID, Month 6): 0.03 (0.955) mL/min/1.73 m^2
- eGFR Change from Baseline, LS mean difference (SE) from placebo group ([2]; 30 mg BID, Month 6): 1.74 (1.374) mL/min/1.73 m^2
- eGFR using MDRD formula, Change from Baseline ([2]; 30 mg BID, Month 6): −0.06 mL/min/1.73 m^2
- eGFR using MDRD formula, Mean (SD) ([2]; 30 mg BID, Month 6): 34.18 (8.004) mL/min/1.73 m^2
- eGFR using MDRD formula, Change from Baseline ([2]; 30 mg BID, Month 9): −0.91 mL/min/1.73 m^2
- eGFR using MDRD formula, Mean (SD) ([2]; 30 mg BID, Month 9): 33.33 (9.468) mL/min/1.73 m^2
- eGFR Change from Baseline, LS mean (SE) ([2]; 30 mg BID, Month 12): 0.33 (1.172) mL/min/1.73 m^2
- eGFR Change from Baseline, LS mean difference (SE) from placebo group ([2]; 30 mg BID, Month 12): 2.38 (1.687) mL/min/1.73 m^2
- eGFR using MDRD formula, Change from Baseline ([2]; 30 mg BID, Month 12): 0.32 mL/min/1.73 m^2
- eGFR using MDRD formula, Mean (SD) ([2]; 30 mg BID, Month 12): 34.56 (9.382) mL/min/1.73 m^2
- eGFR Change from Baseline, LS mean (SE) [2, 4]: 0.33 mL/min/1.73 m^2
- change in eGFR over time ([2]; 30 mg BID): slight improvements
- change in eGFR levels over time ([2]; 30 mg BID): modest improvements
- change in eGFR over time compared with placebo ([2]; 30 mg BID, sUA of 9.0 to <10.0 mg/dL at Baseline): small favorable trend
- change in eGFR over time compared with placebo ([2]; 30 mg BID, sUA≥10.0 mg/dL at Baseline): small trend was apparent
- change in eGFR over time compared with placebo ([2]; 30 mg BID, serum creatinine 2.0 to <2.5 mg/dL at Baseline): small favorable trend
- change in mean eGFR levels ([2]; 30 mg BID, Month 12): small improvement
- eGFR using MDRD formula, Change from Baseline ([2]; 40/80 mg QD, Day 14): −0.52 mL/min/1.73 m^2
- eGFR using MDRD formula, Mean (SD) ([2]; 40/80 mg QD, Day 14): 33.87 (10.259) mL/min/1.73 m^2
- eGFR using MDRD formula, Change from Baseline ([2]; 40/80 mg QD, Month 1): −0.29 mL/min/1.73 m^2
- eGFR using MDRD formula, Mean (SD) ([2]; 40/80 mg QD, Month 1): 33.91 (10.482) mL/min/1.73 m^2
- eGFR using MDRD formula, Change from Baseline ([2]; 40/80 mg QD, Month 3): 0.14 mL/min/1.73 m^2
- eGFR using MDRD formula, Mean (SD) ([2]; 40/80 mg QD, Month 3): 34.34 (10.474) mL/min/1.73 m^2
- eGFR Change from Baseline, LS mean (SE) ([2]; 40/80 mg QD, Month 6): 0.04 (0.969) mL/min/1.73 m^2
- eGFR Change from Baseline, LS mean difference (SE) from placebo group ([2]; 40/80 mg QD, Month 6): 1.75 (1.383) mL/min/1.73 m^2
- eGFR using MDRD formula, Change from Baseline ([2]; 40/80 mg QD, Month 6): −0.03 mL/min/1.73 m^2
- eGFR using MDRD formula, Mean (SD) ([2]; 40/80 mg QD, Month 6): 34.18 (11.067) mL/min/1.73 m^2
- eGFR using MDRD formula, Change from Baseline ([2]; 40/80 mg QD, Month 9): 1.18 mL/min/1.73 m^2
- eGFR using MDRD formula, Mean (SD) ([2]; 40/80 mg QD, Month 9): 35.39 (10.930) mL/min/1.73 m^2
- eGFR Change from Baseline, LS mean (SE) ([2]; 40/80 mg QD, Month 12): −0.86 (0.190) mL/min/1.73 m^2
- eGFR Change from Baseline, LS mean difference (SE) from placebo group ([2]; 40/80 mg QD, Month 12): 1.19 (1.698) mL/min/1.73 m^2
- eGFR using MDRD formula, Change from Baseline ([2]; 40/80 mg QD, Month 12): −0.82 mL/min/1.73 m^2
- eGFR using MDRD formula, Mean (SD) ([2]; 40/80 mg QD, Month 12): 33.38 (11.949) mL/min/1.73 m^2
- eGFR Change from Baseline, LS mean (SE) [2, 5]: −0.086 mL/min/1.73 m^2
- change in eGFR over time ([2]; 40/80 mg QD): slight improvements
- change in eGFR over time compared with placebo ([2]; 40/80 mg QD, sUA of 9.0 to <10.0 mg/dL at Baseline): small favorable trend
- change in eGFR over time compared with placebo ([2]; 40/80 mg QD, serum creatinine 2.0 to <2.5 mg/dL at Baseline): small favorable trend
- change in eGFR levels over time ([2]; 40/80 mg): moderate to large decreases
- change in mean eGFR levels ([2]; 40/80 mg, Month 12): small decreases
- orally administered febuxostat eliminated in the urine as unchanged drug [3]: < 4%
